As a reminder, the EC50 is the concentration that produces a half-maximal response.

Starred links: 1 amine or outer side, 2 acyl side, 3 side chain; linkers in the order of their positions; H or OH if unused. Positions of bridges follow the written chain, without caps; N, C: chain ends. Non-standard residues stand in square brackets, D forms with d. Residues, ends and D or L forms follow the SMILES beside them. Chains are numbered I, II in the order given. *: point of attachment. isoGln = NC(=O)[C@H](CCC(=O)[*:2])N[*:1]; d(εLys) = N[C@H](CCCCN[*:1])C(=O)[*:2]; X1 = N[C@@H](CCC(=O)[*:2])C(=O)[*:1]; εLys = N[C@@H](CCCCN[*:1])C(=O)[*:2]; Aad = N[C@@H](CCCC(=O)O)C(=O)O; Orn = NCCC[C@H](N)C(=O)O; Dab = NCC[C@H](N)C(=O)O; PhAc = O=C(Cc1ccccc1)*

This assay concerns the target T1, human V1aR (Homo sapiens, UniProt P37288).
T1 construct: expressed in transfected cells
Description: Agonist activity at vasopressin V1a receptors, cell-based FLIPR calcium assay. To be noted: for Emax: read-out: Efficacy Avg. (%). The method, then:
Efficacy (% MPE) is also determined as the percentage of maximal possible effect. This agonist assay utilizes cells from a stable cell line (HEK-flpin) expressing the vasopressin V1a receptor. Intracellular calcium increase in response to agonist is measured through real-time fluorescence of an intracellular calcium-sensitive dye. Cells are exposed to varying concentrations of test agonist compounds whereupon release of intracellular calcium is measured to determine the agonist potency and efficacy.
The cell line stably expresses the lacZ-Zeocin™ fusion gene and is designed for use with the Flp-In™ expression vector containing the gene of interest and the Flp recombinase expression plasmid, pOG44. The cell line contains a single integrated Flp Recombination Target (FRT) site from pFRT/lacZeo or pFRT/lacZeo2. To generate the HEK-flpin cell line stably expressing the human V1aR, the cells were co-transfected with the Flp-In™ expression vector containing the gene of interest (pcDNA5/FRT-hV1aR) and the Flp recombinase expression plasmid pOG44. Flp recombinase mediates insertion of the Flp-In™ expression vector into the genome at the integrated FRT site through site-specific DNA recombination. Stable cell lines expressing the hV1aR from the Flp-In™ expression vector can be generated by selection using hygromycin B. See Life Technologies/Invitrogen manual, Growth and Maintenance of Flp-In™ Cell Lines, Version E, published Feb.
Efficacy of this compound was set to be 100%. A stock solution of 5 mM was made up in DMSO and stored at −20° C.
HEK-flpin-hV1aR, cmcqV1aR, dV1aR and pV1aR cells were maintained in DMEM containing 10% (v/v) FBS-HI, 4 mM GlutaMAX™-I, 25 μg/mL Hygromycin B at 37° C. under 5% CO2 in a humidified atmosphere. Subculture was achieved by splitting semi-confluent cultures 1:3 to 1:6.
All compounds were made up in 100% DMSO at 10 mM stock concentrations and stored at −20° C. The compounds were allowed to thaw just before the assay. […] Typical dilution procedure of 10× final assay concentration involved a 1:100 top dilution (e.g., 2 μl Stock into 198 μl dilution medium) followed by half-log serial dilutions (e.g., 25.3 μl into 54.7 μl dilution medium supplemented with 1% DMSO (v/v)). (Dilution media consisted of phenol-red free DMEM containing 10% FBS-HI, 4 mM GlutaMAX™-I). […] The final DMSO concentration in the assay was 0.1%.
Loading Buffer was prepared by dissolving 1 vial of Calcium 4 Assay reagent in 100 mL of 1× HBSS-20 mM Hepes buffer.
The cells were loaded with Loading Buffer as follows. Cell plates were removed from the incubator and 20 μl of Loading Buffer containing probenecid (2.5 mM) was added to each well. The cells were incubated for 1 hr at 37° C. under 5% CO2 in a humidified atmosphere. The calcium image was obtained as follows.
The cell plates were transferred to FLIPR Tetra, along with a 384 well V-bottom plate pre-loaded with half-log concentrations of test compounds at 10× final test concentrations. The remaining steps of the assay were carried forward by FLIPR Tetra. A baseline reading was taken at 1-second (s) intervals for 5s followed by the addition of 5 μl of 10× compounds (test, reference, or Blank). The agonist-induced fluorescence signal was then measured for 180 s with initial 120 readings at 1-second intervals followed by 20 readings at 3-second intervals. Overall, each well in the FLIPR assay was composed of the following components in a total volume of 50 μl: 20 μl cells; 20 μl Calcium 4 Loading Buffer; […] 10× test or reference compound.

T1 sequence (P37288 whole entry): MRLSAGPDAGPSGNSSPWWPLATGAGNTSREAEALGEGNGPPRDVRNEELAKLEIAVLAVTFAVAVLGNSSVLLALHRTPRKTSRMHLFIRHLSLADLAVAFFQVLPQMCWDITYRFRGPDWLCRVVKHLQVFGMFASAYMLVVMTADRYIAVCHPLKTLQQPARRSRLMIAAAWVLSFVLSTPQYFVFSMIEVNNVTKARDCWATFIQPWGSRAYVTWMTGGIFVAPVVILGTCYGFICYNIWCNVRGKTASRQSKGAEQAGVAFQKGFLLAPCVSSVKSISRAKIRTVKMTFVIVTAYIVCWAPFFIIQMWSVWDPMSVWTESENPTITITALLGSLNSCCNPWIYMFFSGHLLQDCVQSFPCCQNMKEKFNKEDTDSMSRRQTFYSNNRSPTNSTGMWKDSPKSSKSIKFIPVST

Turning to `CC[C@H](C)[C@@H]1NC(=O)[C@H](Cc2ccccc2)NC(=O)[C@@H](N)CSSC[C@@H](C(=O)N2CCC[C@H]2C(=O)N[C@@H](CCNC(=O)[C@H](N)CCCCNC(=O)[C@H](CCCCNC(C)=O)NC(=O)CC[C@H](NC(=O)[C@H](CCCNC(=N)N)NC(=O)[C@@H]2CCCN2C(=O)[C@H](C)NC(=O)[C@H](CC(N)=O)NC(=O)[C@H](CCC(N)=O)NC(=O)[C@H](Cc2ccccc2)NC(=O)[C@@H](Cc2ccc(OC)cc2)NC(=O)Cc2ccccc2)C(N)=O)C(=O)NCC(N)=O)NC(=O)[C@H](CC(N)=O)NC(=O)[C@H](CCCC(N)=O)NC1=O` [Compound 58] (I: H-CFI[Aad](NH2)NCP[Dab]G-NH2 / II: PhAc-[dY](Me)FQNAPR[isoGln]K(Ac)[d(εLys)]; disulfide I:1-I:6; amide I:8-II:C), the EC50 stood at 2.6 nM and the Emax is 26%.

Consider `CC[C@H](C)[C@@H]1NC(=O)[C@H](Cc2ccccc2)NC(=O)[C@@H](N)CSSC[C@@H](C(=O)N2CCC[C@H]2C(=O)N[C@@H](CCCNCCCCCNC(=O)CC[C@H](NC(=O)[C@H](CCCNC(=N)N)NC(=O)[C@@H]2CCCN2C(=O)[C@H](CCCCN)NC(=O)[C@H](CC(N)=O)NC(=O)[C@H](CCC(N)=O)NC(=O)[C@H](Cc2ccccc2)NC(=O)[C@@H](Cc2ccc(OC)cc2)NC(=O)Cc2ccccc2)C(N)=O)C(=O)NCC(N)=O)NC(=O)[C@H](CC(N)=O)NC(=O)[C@H](CCC(N)=O)NC1=O` [Compound 12], for which the EC50 was found to be 2.3 nM and the Emax is 39%.

With `CC[C@H](C)[C@@H]1NC(=O)[C@H](Cc2ccccc2)NC(=O)[C@@H](N)CSSC[C@@H](C(=O)N2CCC[C@H]2C(=O)N[C@@H](CCNC(=O)[C@@H](N)CCCCNC(=O)CC[C@H](NC(=O)[C@H](CCCNC(=N)N)NC(=O)[C@@H]2CCCN2C(=O)[C@H](CCCCN)NC(=O)[C@H](CC(N)=O)NC(=O)[C@H](CCC(N)=O)NC(=O)[C@H](Cc2ccccc2)NC(=O)[C@@H](Cc2ccc(OC)cc2)NC(=O)Cc2ccccc2)C(N)=O)C(=O)NCC(N)=O)NC(=O)[C@H](CC(N)=O)NC(=O)[C@H](CCC(N)=O)NC1=O` [Compound 35] (I: H-CFIQNCP[Dab]G-NH2 / II: PhAc-[dY](Me)FQNKPR[isoGln][εLys]; disulfide I:1-I:6; amide I:8-II:C), the EC50 came out at 1.2 nM and the Emax came to 43%.

With `CC[C@H](C)[C@@H]1NC(=O)[C@H](Cc2ccccc2)NC(=O)[C@@H](N)CSSC[C@@H](C(=O)N2CCC[C@H]2C(=O)N[C@@H](CCCNCCCCCCNC(=O)CCCCNC(=O)CC[C@H](NC(=O)[C@H](CCCNC(=N)N)NC(=O)[C@@H]2CCCN2C(=O)[C@H](C)NC(=O)[C@H](CC(N)=O)NC(=O)[C@H](CCC(N)=O)NC(=O)[C@H](Cc2ccccc2)NC(=O)[C@@H](Cc2ccc(OC)cc2)NC(=O)Cc2ccccc2)C(N)=O)C(=O)NCC(N)=O)NC(=O)[C@H](CC(N)=O)NC(=O)[C@H](CCC(N)=O)NC1=O` [Compound 5], the EC50 came to 1.3 nM and the Emax came to 28%.

As to `CC[C@H](C)[C@@H]1NC(=O)[C@H](Cc2ccccc2)NC(=O)[C@@H](N)CSSC[C@@H](C(=O)N2CCC[C@H]2C(=O)N[C@@H](CCNC(=O)[C@@H](N)CCC(=O)NCCCC[C@H](NC(=O)[C@H](CCCNC(=N)N)NC(=O)[C@@H]2CCCN2C(=O)[C@H](C)NC(=O)[C@H](CC(N)=O)NC(=O)[C@H](CCC(N)=O)NC(=O)[C@H](Cc2ccccc2)NC(=O)[C@@H](Cc2ccc(OC)cc2)NC(=O)Cc2ccccc2)C(N)=O)C(=O)NCC(N)=O)NC(=O)[C@H](CC(N)=O)NC(=O)[C@H](CC(N)=O)NC1=O` [Compound 63] (I: H-CFINNCP[Dab]G-NH2 / II: PhAc-[dY](Me)FQNAPRK-NH2; disulfide I:1-I:6; linker I:8-II:8 via X1), the EC50 turned out to be 1.1 nM and the Emax was 36%.

For the molecule `CC[C@H](C)[C@@H]1NC(=O)[C@H](Cc2ccccc2)NC(=O)[C@@H](N)CSSC[C@@H](C(=O)N2CCC[C@H]2C(=O)N[C@@H](CCCNC(=O)[C@@H](N)CCCCNC(=O)CC[C@H](NC(=O)[C@H](CCCNC(=N)N)NC(=O)[C@@H]2CCCN2C(=O)[C@H](CCCNC(=N)N)NC(=O)[C@H](CC(N)=O)NC(=O)[C@@H](NC(=O)[C@H](Cc2ccccc2)NC(=O)[C@@H](Cc2ccc(OC)cc2)NC(=O)Cc2ccccc2)[C@@H](C)O)C(N)=O)C(=O)NCC(N)=O)NC(=O)[C@H](CC(N)=O)NC(=O)[C@H](CCC(N)=O)NC1=O` [Compound 22] (I: H-CFIQNCP[Orn]G-NH2 / II: PhAc-[dY](Me)FTNRPR[isoGln][εLys]; disulfide I:1-I:6; amide I:8-II:C), the half-maximal effective concentration (EC50) turned out to be 0.95 nM and the Emax worked out at 29%.

Consider `CC[C@H](C)[C@@H]1NC(=O)[C@H](Cc2ccccc2)NC(=O)[C@@H](N)CSSC[C@@H](C(=O)N2CCC[C@H]2C(=O)N[C@@H](CCNC(=O)[C@@H](N)CCCCNC(=O)CC[C@H](NC(=O)[C@H](CCCNC(=N)N)NC(=O)[C@@H]2CCCN2C(=O)[C@H](C)NC(=O)[C@H](CC(N)=O)NC(=O)[C@H](CCC(N)=O)NC(=O)[C@H](Cc2ccccc2)NC(=O)[C@@H](Cc2ccc(OC)cc2)NC(=O)Cc2ccccc2)C(N)=O)C(=O)NCC(N)=O)NC(=O)[C@H](CC(N)=O)NC(=O)[C@H](CCCC(N)=O)NC1=O` [Compound 50] (I: H-CFI[Aad](NH2)NCP[Dab]G-NH2 / II: PhAc-[dY](Me)FQNAPR[isoGln][εLys]; disulfide I:1-I:6; amide I:8-II:C), for which the EC50 came to 0.9 nM and the Emax worked out at 40%.

On to `CC[C@H](C)[C@@H]1NC(=O)[C@H](Cc2ccccc2)NC(=O)[C@@H](N)CSSC[C@@H](C(=O)N2CCC[C@H]2C(=O)N[C@@H](CCNC(=O)[C@H](N)CCCCNC(=O)CC[C@H](NC(=O)[C@H](CCCNC(=N)N)NC(=O)[C@@H]2CCCN2C(=O)[C@H](C)NC(=O)[C@H](CC(N)=O)NC(=O)[C@H](CCC(N)=O)NC(=O)[C@H](Cc2ccccc2)NC(=O)[C@@H](Cc2ccc(OC)cc2)NC(=O)Cc2ccccc2)C(N)=O)C(=O)NCC(N)=O)NC(=O)[C@H](CC(N)=O)NC(=O)[C@H](CCCC(N)=O)NC1=O` [Compound 51] (I: H-CFI[Aad](NH2)NCP[Dab]G-NH2 / II: PhAc-[dY](Me)FQNAPR[isoGln][d(εLys)]; disulfide I:1-I:6; amide I:8-II:C), for which the EC50 amounted to 1.4 nM and the Emax came out at 43%.

Take `CC[C@H](C)[C@@H]1NC(=O)[C@H](Cc2ccccc2)NC(=O)[C@@H](N)CSSC[C@@H](C(=O)N2CCC[C@H]2C(=O)N[C@@H](CCCNCCCCCNC(=O)CC[C@H](NC(=O)[C@H](CCCNC(=N)N)NC(=O)[C@@H]2CCCN2C(=O)[C@H](Cc2c[nH]cn2)NC(=O)[C@H](CC(N)=O)NC(=O)[C@H](CCC(N)=O)NC(=O)[C@H](Cc2ccccc2)NC(=O)[C@@H](Cc2ccc(OC)cc2)NC(=O)Cc2ccccc2)C(N)=O)C(=O)NCC(N)=O)NC(=O)[C@H](CC(N)=O)NC(=O)[C@H](CCC(N)=O)NC1=O` [Compound 13]: the EC50 stood at 2.4 nM and the Emax was 48%.

Take `CC[C@H](C)[C@@H]1NC(=O)[C@H](Cc2ccccc2)NC(=O)[C@@H](N)CSSC[C@@H](C(=O)N2CCC[C@H]2C(=O)N[C@@H](CCNC(=O)[C@@H](N)CCCCNC(=O)[C@H](CCCCN)NC(=O)CC[C@H](NC(=O)[C@H](CCCNC(=N)N)NC(=O)[C@@H]2CCCN2C(=O)[C@H](C)NC(=O)[C@H](CC(N)=O)NC(=O)[C@H](CCC(N)=O)NC(=O)[C@H](Cc2ccccc2)NC(=O)[C@@H](Cc2ccc(OC)cc2)NC(=O)Cc2ccccc2)C(N)=O)C(=O)NCC(N)=O)NC(=O)[C@H](CC(N)=O)NC(=O)[C@H](CCC(N)=O)NC1=O` [Compound 41] (I: H-CFIQNCP[Dab]G-NH2 / II: PhAc-[dY](Me)FQNAPR[isoGln]K[εLys]; disulfide I:1-I:6; amide I:8-II:C): the EC50 came to 1.2 nM and the Emax is 37%.

Values taken from US20160122386A1, “V1A RECEPTOR AGONISTS” (FERRING B.V., priority 2014, published 2016).
